Entries after “also recorded” stand apart in the source; their conditions may differ.
Key:
[1] = tested on: LNCaP cells; experiment: MTT assay (cytotoxicity), LNCaP cells; format: cell-based; conditions: LNCaP cells, 72 h, Table 4.2
Outline: (§1)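 72 h continuous drug exposure, RPMI 1640/10% FBS, MTT endpoint; DMSO vehicle control.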

[2] = tested on: 22Rv1 cells; experiment: MTT assay (cytotoxicity), 22Rv1 cells; format: cell-based; conditions: 22Rv1 cells, 72 h, Table 4.2
Outline: as §1

[3] = molecular target: T1, glucocorticoid receptor (GR) (Homo sapiens, UniProt P04150); experiment: GR MMTV-luc reporter assay in PC3 cells; format: cell-based; set-up: interference with transcriptional activity of GR: dose or concentration left out as unconfirmed; conditions: for effect on GR transcriptional activation induced by DEX (MMTV-luc): 10 nM DEX, 24 h; for agonism of GR (MMTV-luc): absence of DEX
T1 construct: PC3 cells express endogenous GR; endogenous in cells; host or cells: PC3
T1 sequence (P04150 1-777): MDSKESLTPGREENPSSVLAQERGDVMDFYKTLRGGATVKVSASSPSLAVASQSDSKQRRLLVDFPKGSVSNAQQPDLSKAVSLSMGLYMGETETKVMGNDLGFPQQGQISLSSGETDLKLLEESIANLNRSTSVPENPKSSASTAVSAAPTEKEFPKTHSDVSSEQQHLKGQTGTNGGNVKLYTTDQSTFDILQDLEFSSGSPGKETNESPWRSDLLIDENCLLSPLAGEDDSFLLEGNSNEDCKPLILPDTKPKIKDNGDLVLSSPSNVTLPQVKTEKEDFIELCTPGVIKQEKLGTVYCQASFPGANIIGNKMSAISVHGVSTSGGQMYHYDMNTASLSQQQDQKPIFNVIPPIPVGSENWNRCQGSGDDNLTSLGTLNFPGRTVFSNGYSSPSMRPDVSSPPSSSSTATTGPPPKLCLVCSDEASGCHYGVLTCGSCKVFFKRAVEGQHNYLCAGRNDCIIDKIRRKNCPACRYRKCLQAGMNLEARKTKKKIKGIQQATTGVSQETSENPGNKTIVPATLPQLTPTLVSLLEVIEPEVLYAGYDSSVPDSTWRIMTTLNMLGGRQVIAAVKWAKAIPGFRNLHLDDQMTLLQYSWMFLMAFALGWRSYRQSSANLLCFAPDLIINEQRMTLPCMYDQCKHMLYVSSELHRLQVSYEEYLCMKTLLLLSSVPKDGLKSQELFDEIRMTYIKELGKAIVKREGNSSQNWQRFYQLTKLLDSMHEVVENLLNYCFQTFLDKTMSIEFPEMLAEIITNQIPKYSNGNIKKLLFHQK
Description: A) PC3 cells express endogenous GR. MMTV-Luc and pRL-TK were transiently co-transfected into PC3 cells.
AR and GR are close homology proteins and both of them belong to steroid receptor family. […] MMTV-luc reporter and pRL-TK plasmids were transiently co-transfected into PC3 cells, which endogenously express GR. […] DEX is an agonist of the GR.

[4] = molecular target: T2, AR-v7 (Homo sapiens, UniProt P10275); experiment: AR-v7-dependent PSA-luc reporter assay in HEK293 cells; conditions: for potency relative to EPI-001 at 25 μM in suppressing constitutive activation of wild-type AR-v7: compounds at 2.5 μM
T2 sequence (P10275 1-644 isoform P10275-3): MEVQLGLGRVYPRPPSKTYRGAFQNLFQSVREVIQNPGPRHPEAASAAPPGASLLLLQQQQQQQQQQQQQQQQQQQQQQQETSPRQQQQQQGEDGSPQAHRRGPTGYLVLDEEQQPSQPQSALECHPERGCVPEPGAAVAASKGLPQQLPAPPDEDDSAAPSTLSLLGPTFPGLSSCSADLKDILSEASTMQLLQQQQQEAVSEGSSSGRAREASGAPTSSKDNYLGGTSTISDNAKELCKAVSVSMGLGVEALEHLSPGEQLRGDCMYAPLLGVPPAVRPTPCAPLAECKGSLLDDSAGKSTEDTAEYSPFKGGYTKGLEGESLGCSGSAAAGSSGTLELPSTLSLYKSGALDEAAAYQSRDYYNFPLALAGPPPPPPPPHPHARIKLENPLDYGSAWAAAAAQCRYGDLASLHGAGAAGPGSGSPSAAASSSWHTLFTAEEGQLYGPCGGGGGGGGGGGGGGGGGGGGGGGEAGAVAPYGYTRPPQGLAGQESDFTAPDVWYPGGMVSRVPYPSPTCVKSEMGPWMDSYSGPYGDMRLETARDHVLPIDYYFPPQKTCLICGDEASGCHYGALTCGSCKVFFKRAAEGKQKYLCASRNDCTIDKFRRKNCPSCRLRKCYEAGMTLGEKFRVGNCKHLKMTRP
Description: Cells were exposed to vehicle control or compounds at designated concentrations (μM) for 48 h.

[5] = MTT assay (cytotoxicity), LNCaP cells; format: cell-based; conditions: human, LNCaP cells
Outline: as §1

| Compound | IC50 [1] | IC50 [2] | effect on GR transcriptional activation induced by DEX (MMTV-luc) ([3]; PC3 cells) | suppression of GR transactivation induced by 10 nM DEX ([3]; 5 μM, PC3 cells) | agonism of GR (MMTV-luc) ([3]; 5 μM) | agonism of GR (MMTV-luc) ([3]; PC3 cells) | inhibition of constitutive activation of AR-v7 (PSA-luc) ([4]; 24 h) | IC50 at 72 h ([5]; 72 h, Table 2.1) | interference with transcriptional activity of GR [3] | inhibition of constitutive activation of AR-v7 (PSA-luc) ([4]; 2.5 μM) | potency relative to EPI-001 at 25 μM in suppressing constitutive activation of wild-type AR-v7 [4] | IC50 at 72 h ([5]; 72 h, Table 4.1) | IC50 at 72 h ([5]; 72 h treatment, Table 6.1) |
| --- | --- | --- | --- | --- | --- | --- | --- | --- | --- | --- | --- | --- | --- |
| O=C(Nc1cccc(C(F)(F)F)c1)Nc1ccc([N+](=O)[O-])c(C(F)(F)F)c1 [Compound 442] | 0.5 µM | 1.5 µM | inactive | inactive | non-agonist | non-agonist | inhibited | – | – | – | – | – | – |
| N#Cc1ccc(NC(=O)Nc2cccc(C(F)(F)F)c2)cc1C(F)(F)F [Compound 467] | 0.9 µM | 1.7 µM | inactive | inactive | non-agonist | non-agonist | inhibited | – | – | – | – | – | – |
| N#Cc1ccc(NC(=O)Nc2cccc(C(F)(F)F)c2)cc1Cl [Compound 492] | 0.8 µM | 1.9 µM | inactive | inactive | non-agonist | – | inhibited | – | – | – | – | – | – |
| O=C(N/C=C/c1cccc(C(F)(F)F)c1)Nc1ccncn1 [Compound 562] | – | – | do not interfere; also recorded: selective towards the AR | – | – | – | dose-dependently inhibit | 4.4 µM | do not interfere | inhibit | more potent than EPI-001 at 25 μM | – | – |
| O=C(Nc1ccc(Br)nc1)Nc1cc(C(F)(F)F)cc(C(F)(F)F)c1 [Compound 566] | – | – | do not interfere | – | – | – | – | – | do not interfere | inhibit | more potent than EPI-001 at 25 μM | 0.8 µM | – |
| O=C(Nc1cccc(C(F)(F)F)c1)Nc1ccc(NC(=O)c2ccccc2F)c(C(F)(F)F)c1 [Compound 746] | – | – | do not interfere; also recorded: selective towards the AR | – | – | – | dose-dependently inhibit | – | do not interfere | inhibit | – | – | 1 µM |

Reference: patent publication US20170273922A1, “UREA AND BIS-UREA BASED COMPOUNDS AND ANALOGUES THEREOF USEFUL IN THE TREATMENT OF ANDROGEN RECEPTOR MEDIATED DISEASES OR DISORDERS” (THE ROYAL INSTITUTION FOR THE ADVACEMENT OF LEARNING/MCGILL …, priority 2014, published 2017)
